How the values were obtained:
Format in all cases: in vivo, human
[1] = system: post-menopausal women with heart failure; assay: high-density lipoprotein (HDL) measurement
Method: (§1) Thirty-two (32) patients enrolled in the trial. […] Testosterone was administered to the patients as Intrinsa, which is available in Europe.
(§2) The clinical trial design involved: (A) evaluation of inclusion/exclusion criteria and study agreement; (B) visit (blood pressure, heart rate and NYHA classification); (C) six minute walking test, endothelial function, ergospirometry (when possible), muscle strength (isometric and isokinetic) and blood samples; and then (D) randomization to testosterone or placebo. The following follow-ups were conducted: six weeks (B); twelve weeks (B+C); 18 weeks (B); and 24 weeks (B+C).
High-density lipoprotein (“HDL”) was measured.

[2] = system: post-menopausal women with heart failure; assay: muscle isometric strength, maximal voluntary contraction (MVC)
Method: as §1, §2
Isometric strength was the highest force developed by patients in three, 5-second maximal voluntary contractions (“MVC”) separated by 1 minute of rest. The knee angle was fixed at 80° (full extension considered 0°). Results are reported at Tables 9-10 and FIGS. 8-10.

[3] = system: post-menopausal women with heart failure; assay: NYHA classification improvement
Method: as §1, §2
NYHA Classification was determined for each individual at three months and at six months of treatment.

[4] = system: post-menopausal women with heart failure; assay: muscle isokinetic strength, peak torque
Method: as §1, §2
Isokinetic strength was assessed by evaluating the highest peak torque achieved in a five maximal repetition test of concentric knee extension/flexion performed at 90 degree/sec. The range of motion was 50°. Results are reported at Tables 11-12 and FIGS. 11-13.

[5] = system: post-menopausal women with heart failure; assay: drop-outs and adverse events during the clinical study; conditions: testosterone group of 20 patients
Method: as §1
During the clinical study, two patients dropped out of the testosterone group, and one patient dropped out of the placebo group. […] The patient who dropped out of the placebo group was a no-show at the 6-week meeting and was reported to have stopped the treatment. Of the testosterone group, six patients referred mild skin irritation at the patch site and continued therapy. Of the placebo group, two patients referred mild skin irritation at the patch site and continued therapy. […] These two patients continued the testosterone treatment. Two patients in the placebo group had worsening heart failure that required hospital admission (one patient had one episode of worsening heart failure; the other patient had two episodes of worsening heart failure). These two patients continued with the patch.

[6] = system: post-menopausal women with heart failure; assay: maximal oxygen consumption (MVO2) by ergospirometry
Method: Thirty-two (32) patients enrolled in the trial.
The following follow-ups were conducted: six weeks (B); twelve weeks (B+C); 18 weeks (B); and 24 weeks (B+C).
Maximal oxygen consumption (“MVO2;” also “VO2 max”) is the maximum volume of oxygen that the body can consume during intense, whole-body exercise, while breathing air at sea level. This volume is expressed as a rate, which is in ml/kg/min. As oxygen consumption is linearly related to energy expenditure, the measurement of oxygen consumption is an indirect measurement of an individual's maximal capacity to do work aerobically.

[7] = system: post-menopausal women with heart failure; assay: six minute walking test (6MWT), exercise tolerance; conditions: for 6MWT distance walked: 300 mcg/day transdermal patch
Method: as §1, §2
In the 6MWT, each patient started by standing at a known beginning location point. Each patient then walked as much as possible within a 6-minute timeframe. At the end of the 6-minute timeframe, the ending location of each patient was identified. The distance each patient walked was calculated by measuring (in meters) the distance between the beginning and end points for each patient.

C[C@]12CC[C@H]3[C@@H](CCC4=CC(=O)CC[C@@]43C)[C@@H]1CC[C@@H]2O [Testosterone, testosterone]
HDL Percent Changes ([1]; 3 months): 19% | HDL level ([1]; 3 months): 43.24 mg/dL | HDL Percent Changes ([1]; 6 months): 25% | HDL level ([1]; 6 months): 43.15 mg/dL | HDL level ([1]; baseline, testosterone group): 36.9 mg/dL | MVC percent change from baseline ([2]; 3 months): 37.8% change | isometric strength, maximal voluntary contraction (MVC) ([2]; 3 months): 89.4 N | MVC percent change from baseline ([2]; 6 months): 47.6% change | isometric strength, maximal voluntary contraction (MVC) ([2]; 6 months): 95.7 N | isometric strength, maximal voluntary contraction (MVC) ([2]; baseline, testosterone group): 64.85 N | Percent of patients with improvement of NYHA Class and/or improvement of >15% 6 MWT (% Response) ([3]; 6 months): 80% | Percent change in NYHA Class of patients: NYHA 0 ([3]; during 6 months of treatment): 50% | Percent change in NYHA Class of patients: NYHA + 1 ([3]; during 6 months of treatment): 11% | Percent change in NYHA Class of patients: NYHA − 1 ([3]; during 6 months of treatment): 38.8% | isokinetic strength, peak torque ([4]; 3 months): 58.85 N/m | peak torque percent change from baseline ([4]; 3 months): 42.32% change | isokinetic strength, peak torque ([4]; 6 months): 63.82 N/m | peak torque percent change from baseline ([4]; 6 months): 54.34% change | isokinetic strength, peak torque ([4]; baseline, testosterone group): 41.35 N/m | patients who dropped out [5]: two | patients with generalized prurigo (without lesions on the skin), discontinued treatment after 3 weeks [5]: one | patients with mild skin irritation at the patch site, continued therapy [5]: six | patients with one episode of worsening of heart failure requiring hospital admission ([5]; during the follow-up): Two | MVO2 percent change from baseline ([6]; 3 months): 21% change | MVO2 percent change from baseline ([6]; 6 months): 28% change | MVO2 percent change from baseline ([6]; 6 months, listed as testosterone): over 25 % change | maximal oxygen consumption peak (MVO2) ([6]; baseline, testosterone group): 10.54 mL/min/kg | 6MWT percent change from baseline ([7]; 3 months): 35.7% change | 6MWT change in distance walked ([7]; 3 months vs baseline): 93 Δ m | 6MWT distance walked ([7]; 3 months): 353 m | 6MWT percent change from baseline ([7]; 6 months): 39.2% change | 6MWT change in distance walked ([7]; 6 months vs baseline): 102 Δ m | 6MWT distance walked ([7]; 6 months): 362 m | 6MWT distance walked ([7]; baseline, testosterone group): 260 m
